Experimental data reported in patent US10220024B2, “Method of inhibiting cancer cell, method for detecting cancer cell, and system for detecting cancer cell” (CANON KABUSHIKI KAISHA, priority 2012, dated 2019).
Where two headings read alike, the source gives them in different places.

Key:
[1] = test system: K562 ALDH (+) fraction (cancer stem cells); test: Cancer stem-cell selective inhibitory action against chronic myelocytic leukemia cells, ALDH (+) fraction, CellTiter-Glo; type: cell-based; settings: Homo sapiens, 24 hours; for activity at 0.12 µg/mL: 0.12 μg/ml; for activity at 0.24 µg/mL: 0.24 μg/ml; for activity at 0.35 µg/mL: 0.35 μg/ml; for activity at 0.47 µg/mL: 0.47 μg/ml; for activity at 0.59 µg/mL: 0.59 μg/ml; for activity at 10 µg/mL: 10 μg/ml
Experimental: (§1) Human chronic myelocytic leukemia cells, K562, were pre-cultured in RPMI1640 medium containing 10% FBS at 37° C. in a 5% CO2 ambient. Then, a fraction containing 80% or more of cancer stem cells was extracted by use of ALDEFLUOR reagent (manufactured by VERITAS Corporation) and FACSAria flow cytometry (manufactured by Nippon Becton, Dickinson and Company). Subsequently, Compound (5) was added to the medium so as to obtain a final concentration of 10 μg/mL and cultured at 37° C. for 24 hours in a 5% CO2 ambient. The cultured cells were analyzed for viable cell count according to CellTiter-Glo Luminescent Cell Viability Assay (manufactured by Promega KK.). As a reference, the number of cells cultured in a medium containing a 0.1% dimethylsulfoxide solution (hereinafter, simply referred to as DMSO) in place of a medium containing Compound (1), in the aforementioned operation, was used as 0.1. Note that hereinafter, an ALDEFLUOR reagent positive fraction (deemed as cancer stem cells) is represented by ALDH (+), whereas an ALDEFLUOR reagent negative fraction (not deemed as cancer stem cells) is represented by ALDH (−), in some cases.
(§2) The same operation as in Experimental Example 12 was repeated except that Compound (5) in Experimental Example 12 was changed to the compounds shown in Table 4 and final concentrations shown in Table 4 were used and viable cell counts were separately analyzed. Note that the growth rate in Examples herein is a numerical value of the number of cells obtained after culture relative to the number of cells (regarded as 0.1) grown in a medium containing 0.1% DMSO.
(§3) The same operation as in Experimental Example 12 was repeated except that Compound (5) in Experimental Example 12 was changed to Imatinib (manufactured by NOVARTIS), which is a general anticancer drug, and comparative compounds shown in Table 4 and final concentrations shown in Table 4 were used and viable cell counts were separately analyzed.
(§4) The growth suppressive effect of cancer stem cells was evaluated based on the following criteria. Note that the growth rate in Examples herein is a numerical value relative to the number of cells (regarded as 0.1) grown in a medium containing 0.1% DMSO. • A: The value of ALDH (+) is less than 0.5 (growth suppressive effect against cancer stem cells is extremely high) • B: The value of ALDH (+) is 0.5 or more and less than 0.95 (growth suppressive effect against cancer stem cells is high) • C: The value of ALDH (+) is 0.95 or more (no growth suppressive effect against cancer stem cells)
(§5) Furthermore, superiority of cancer stem cells was evaluated by comparing cancer stem cells to cancer cells based on the following criteria. ALDH (+) represents cancer stem cells; whereas ALDH (−) represents general cancer cells. • A: The value of ALDH (+)/ALDH (−) is less than 0.8 (selective inhibitory effect against cancer stem cells is extremely high) • B: The value of ALDH (+)/ALDH (−) is 0.8 or more and less than 0.95 (selective inhibitory effect against cancer stem cells is high) • C: The value of ALDH (+)/ALDH (−) is 0.95 or more (no selective inhibitory effect against cancer stem cells)

[2] = test system: K562 ALDH (−) fraction (general cancer cells); test: Cancer stem-cell selective inhibitory action against chronic myelocytic leukemia cells, ALDH (−) fraction, CellTiter-Glo; type: cell-based, Human; settings: for activity at 10 µg/mL: 10 μg/ml
Experimental: as §1, §2, §3, §4, §5

[3] = test system: K562-BFP human chronic myelocytic leukemia cells transplanted to zebra young fish; test: Cancer metastasis suppressive effect in metastatic foci of cancer cells transplanted to zebra young fish; type: in vivo; settings: metastatic foci (region within 300 to 450 μm from a transplanted tumor); for Evaluation (inhibition rate in metastatic foci): 0.5 μm in breeding water; for Inhibition rate: final concentration of 0.5 μm in breeding water, 100×(1-F1/F0) versus DMSO
Description: From cell strain K562-BFP, which is a strain of human chronic myelocytic leukemia cells having fluorescent protein TagBFP constantly expressed, a fraction (ALDH (+)) containing 80% or more of cancer stem cells was extracted by use of a cancer stem cell marker, ALDEFLUOR reagent (manufactured by VERITAS Corporation) and FACSAria flow cytometry (manufactured by Nippon Becton, Dickinson and Company). The ALDH (+) fraction and a ALDH (−) fraction of general cancer cells were transplanted separately to zebra young fish (MieKomachi lineage, 2 days after fertilization) and the fish were raised in a 32° C. environment. Furthermore, 24 hours after transplantation, Compound (16) was added to breeding water so as to obtain a final concentration of […] and fish were raised for two days in a 32° C. environment. Cells transplanted to the zebra young fish were observed under MZ16F fluorescent stereoscopic microscope (manufactured by Leica Microsystems) and a fluorescent image of the cells after 24 hours was photographed and then fluorescent intensity was quantified.
As a reference, the fluorescent intensity of cells, which were cultured in the same operation method as above in a medium containing a 0.1% DMSO solution in place of Compound (16), was used.
Fluorescent images were photographed in the same manner as in Experimental Example 29 except that Imatinib and Dasatinib were respectively used in place of the compound (16) in Experimental Example 29.
The inhibition rate herein was obtained according to the expression: 100×(1-F1/F0), where the fluorescent intensity of cells when a test substance was added is represented by F1, and the fluorescent intensity of cells when a reference substance (DMSO) was added is represented by F0.
The growth suppressive effect in metastatic foci (region within 300 to 450 μm from a transplanted tumor) of cancer stem cells was evaluated based on the following criteria. • A: Inhibition rate is 70 or more (growth suppressive effect against metastatic foci (region within 300 to 450 μm from a transplanted tumor) of cancer stem cells is extremely high) • B: Inhibition rate is 50 or more and less than 70 (growth suppressive effect against metastatic foci (region within 300 to 450 μm from a transplanted tumor) of cancer stem cells is high) • C: Inhibition rate is less than 50 (growth suppressive effect against metastatic foci (region within 300 to 450 μm from a transplanted tumor) of cancer stem cells is low)

[4] = test system: Human pancreas cancer cells, KLM-1; test: Cancer cell inhibitory (growth suppressive) action against pancreatic cancer cells, CellTiter-Glo viable cell count; type: cell-based; settings: KLM1, KLM-1, 10 μg/mL, 24 hours
Experimental: (§6) Observation on cancer cell inhibitory (growth suppressive) action against pancreatic cancer cells Human pancreas cancer cells, KLM-1, were pre-cultured in RPMI1640 medium containing 10% FBS at 37° C. in a 5% CO2 ambient. Thereafter, 4,000 cells were seeded per well of a 96-well plate and further cultured for 24 hours. Subsequently, Compound (1) was added to the medium so as to obtain a final concentration of 10 μg/mL and cultured at 37° C. for 24 hours in a 5% CO2 ambient. The cultured cells were analyzed for viable cell count according to CellTiter-Glo Luminescent Cell Viability Assay (manufactured by Promega KK.). As a reference, the number of cells cultured in a medium containing a 0.1% dimethylsulfoxide solution (hereinafter, simply referred to as DMSO) in place of a medium containing Compound (1), in the aforementioned operation, was regarded (100%).
Viable cell count was analyzed in the same manner as in Experimental Example 1 except that Compound (1) of Experimental Example 1 was changed to compounds shown in Table 2.
Viable cell count was analyzed in the same manner as in Experimental Example 1 except that Compound (1) was changed to comparative compounds 1 to 4.
Viable cell counts of Experimental Examples 1 to 7 and Comparative Examples 1 to 4 were analyzed to obtain growth rates.
Evaluation of cancer cell inhibition against the pancreatic cancer cells (KLM-1) (growth suppression) was made based on the following criteria. Note that the growth rate in Examples herein is a numerical value of the number of cells obtained after culture relative to the number of cells (regarded as 100) grown in a medium containing 0.1% DMSO. Evaluation of cancer cell inhibition against the pancreatic cancer cells (KLM-1) was made as follows. • A: Cancer cell growth rate is less than 20% (cancer cell inhibitory (growth suppressive) effect is extremely high) • B: Cancer cell growth rate is 20% or more and less than 50% (cancer cell inhibitory (growth suppressive) effect is high) • C: Cancer cell growth rate is 50% or more (cancer cell inhibitory (growth suppressive) effect is low)

[5] = test system: Prostatic cancer cells, PC-3; test: Cancer cell inhibitory (growth suppressive) action against prostatic cancer cells, CellTiter-Glo viable cell count; type: cell-based; settings: PC-3, 10 μg/mL, 24 hours
Experimental: as §6, with “Prostatic” for “Observation on cancer cell inhibitory (growth suppressive) action against pancreatic cancer cells Human pancreas”, “PC-3,” for “KLM-1,”, “(11)” for “(1)”, “(11),” for “(1),”, “used as 100.” for “regarded (100%).”
Viable cell count was analyzed in the same manner as in Experimental Example 8 except that the compounds shown in Table 3 were used in place of Compound (11) of Experimental Example 8.
Viable cell count was analyzed in the same manner as in Experimental Example 8 except that comparative compounds 1 to 4 were used in place of Compound (11) of Experimental Example 8.
The growth rate in Examples herein is a numerical value of the number of cells obtained after culture relative to the number of cells (regarded as 100) grown in a medium containing 0.1% DMSO.
Evaluation of cancer cell inhibition against the prostatic cancer cells (PC-3) was made as follows. • A: Cancer cell growth rate is less than 20% (cancer cell inhibitory (growth suppressive) effect is extremely high) • B: Cancer cell growth rate is 20% or more and less than 50% (cancer cell inhibitory (growth suppressive) effect is high) • C: Cancer cell growth rate is 50% or more (cancer cell inhibitory (growth suppressive) effect is low)

[6] = Measurement of fluorescent property of compound (spectrofluorometer); type: physicochemical; settings: 5 μM DMSO solution
Experimental: The excitation wavelength and fluorescence wavelength of the compound were measured by a FL4500 spectrofluorometric measuring machine manufactured by Hitachi High-Technologies Corporation.

[7] = read-out: Growth suppression evaluated
[8] = relative to 0.1% DMSO, read-out: ALDH(+) (growth rate)
[9] = read-out: Evaluation (cancer cell growth rate)
[10] = relative to 0.1% DMSO (100), read-out: Cancer cell growth rate (%)
[11] = Homo sapiens, 24 hours, relative to 0.1% DMSO, read-out: ALDH(−) (growth rate)

Compound	Evaluation (inhibition rate in metastatic foci) [3]	Inhibition rate [3]	activity at 10 µg/mL [4, 9] [%]	activity at 10 µg/mL [4, 10] [%]	activity at 10 µg/mL [5, 9] [%]	activity at 10 µg/mL [5, 10] [%]	Excitation wavelength λex [6] [nm]	Fluorescence wavelength λem [6] [nm]	activity at 10 µg/mL [1, 7] [%]	activity at 10 µg/mL [1, 8] [%]	activity at 10 µg/mL [2, 11] [%]	further results
Cc1ccc(NC(=O)c2ccc(CN3CCN(C)CC3)cc2)cc1Nc1nccc(-c2cccnc2)n1 [Imatinib, reference compound]	B (Inhibition rate is 50 or more and less than 70)	60	–	–	–	–	–	–	–	–	–	activity at 0.12 µg/mL [1, 7]: 50 to 95%; activity at 0.12 µg/mL [1, 8]: 74%; activity at 0.24 µg/mL [1, 7]: 50 to 95%; activity at 0.24 µg/mL [1, 8]: 59%; activity at 0.35 µg/mL [1, 7]: < 50%; activity at 0.35 µg/mL [1, 8]: 48%; activity at 0.47 µg/mL [1, 7]: < 50%; activity at 0.47 µg/mL [1, 8]: 36%; activity at 0.59 µg/mL [1, 7]: < 50%; activity at 0.59 µg/mL [1, 8]: 31%; inhibitory effect against general cancer cells, in words [2]: an inhibitory effect against general cancer cells was observed; activity at 0.12 µg/mL ([2]; Homo sapiens, 0.12 μg/ml, 24 hours, relative to 0.1% DMSO, read-out: ALDH(−) (growth rate)): 51%; activity at 0.24 µg/mL ([2]; Homo sapiens, 0.24 μg/ml, 24 hours, relative to 0.1% DMSO, read-out: ALDH(−) (growth rate)): 40%; activity at 0.35 µg/mL ([2]; Homo sapiens, 0.35 μg/ml, 24 hours, relative to 0.1% DMSO, read-out: ALDH(−) (growth rate)): 32%; activity at 0.47 µg/mL ([2]; Homo sapiens, 0.47 μg/ml, 24 hours, relative to 0.1% DMSO, read-out: ALDH(−) (growth rate)): 22%; activity at 0.59 µg/mL ([2]; Homo sapiens, 0.59 μg/ml, 24 hours, relative to 0.1% DMSO, read-out: ALDH(−) (growth rate)): 11%
Cc1nc(Nc2ncc(C(=O)Nc3c(C)cccc3Cl)s2)cc(N2CCN(CCO)CC2)n1 [Dasatinib]	C (Inhibition rate is less than 50)	36	–	–	–	–	–	–	–	–	–	–
CCn1c2ccccc2c2cc(/C=c3/s/c(=C\C4=[N+](CC)c5ccccc5C4(C)C)n(CC(=O)O)c3=O)ccc21 [Compound 20]	–	–	20 to 50	22.3	< 20	4.8	493	585	< 50	14	25	–
CC[N+]1=C(/C=c2\s/c(=C/c3ccc4c(c3)C3CCCC3N4c3ccccc3)c(=O)n2CC(=O)O)C(C)(C)c2ccccc21 (centres unmarked) [Compound 15]	–	–	< 20	9	< 20	7.1	568	643	< 50	21	26	–
